According to the supplement of paper PMC10307832:

Tests used:
Test in all cases: relative viability (nuclei count vs DMSO), 5 days (fraction); higher = more cells survive
GW-2580 + Foretinib = compound: COC1=CC=C(C=C1)COC2=C(C=C(C=C2)CC3=CN=C(N=C3N)N)OC [GW-2580] + COc1cc2c(Oc3ccc(NC(=O)C4(C(=O)Nc5ccc(F)cc5)CC4)cc3F)ccnc2cc1OCCCN1CCOCC1 [Foretinib] (partner 0.25 µM)
In short: (§1)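 Dosing by pin tool came one day after lung cancer cell lines were seeded in 1536-well plates, using either one drug or a fixed anchor-drug dose plus five library-drug doses (not always all listed) in √10 steps. After 5 days, nuclei were counted on 4× images. Relative viability is treated-well nuclei count divided by vehicle-well nuclei count, and values are medians of duplicate plates.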

Fedratinib + Lapatinib = compound: Cc1cnc(Nc2ccc(OCCN3CCCC3)cc2)nc1Nc1cccc(S(=O)(=O)NC(C)(C)C)c1 [Fedratinib] + CS(=O)(=O)CCNCc1ccc(-c2ccc3ncnc(Nc4ccc(OCc5cccc(F)c5)c(Cl)c4)c3c2)o1 [Lapatinib] (partner 2 µM)
In short: as §1

GW-2580 + Crizotinib = compound: COC1=CC=C(C=C1)COC2=C(C=C(C=C2)CC3=CN=C(N=C3N)N)OC [GW-2580] + C[C@@H](Oc1cc(-c2cnn(C3CCNCC3)c2)cnc1N)c1c(Cl)ccc(F)c1Cl [Crizotinib] (partner 1 µM)
In short: as §1

Fedratinib + Vorinostat = compound: Cc1cnc(Nc2ccc(OCCN3CCCC3)cc2)nc1Nc1cccc(S(=O)(=O)NC(C)(C)C)c1 [Fedratinib] + O=C(CCCCCCC(=O)Nc1ccccc1)NO [Vorinostat] (partner 1 µM)
In short: as §1

Fedratinib + Bortezomib = compound: Cc1cnc(Nc2ccc(OCCN3CCCC3)cc2)nc1Nc1cccc(S(=O)(=O)NC(C)(C)C)c1 [Fedratinib] + CC(C)C[C@H](NC(=O)[C@H](Cc1ccccc1)NC(=O)c1cnccn1)B(O)O [Bortezomib] (partner 0.002 µM)
In short: as §1

Cell Line	relative viability (GW-2580 + Foretinib; first compound 0.08 µM)	relative viability (GW-2580 + Foretinib; first compound 0.8 µM)	relative viability (GW-2580 + Foretinib; first compound 2.53 µM)	relative viability (GW-2580 + Foretinib; first compound 8 µM)	relative viability (Fedratinib + Lapatinib; first compound 0.1 µM)	relative viability (Fedratinib + Lapatinib; first compound 0.3162 µM)	relative viability (Fedratinib + Lapatinib; first compound 1 µM)	relative viability (GW-2580 + Crizotinib; first compound 0.08 µM)	relative viability (GW-2580 + Crizotinib; first compound 0.8 µM)	relative viability (GW-2580 + Crizotinib; first compound 2.53 µM)	relative viability (GW-2580 + Crizotinib; first compound 8 µM)	relative viability (Fedratinib + Vorinostat; first compound 0.1 µM)	relative viability (Fedratinib + Vorinostat; first compound 0.3162 µM)	relative viability (Fedratinib + Vorinostat; first compound 1 µM)	relative viability (Fedratinib + Bortezomib; first compound 0.1 µM)	relative viability (Fedratinib + Bortezomib; first compound 0.3162 µM)	relative viability (Fedratinib + Bortezomib; first compound 1 µM)
HCC-827	1.13	1.02	1.02	0.905	0.187	0.181	0.22	0.874	0.933	0.863	0.868	0.862	0.841	0.75	1.09	1.03	1.03
HOP-62	1.27	1.25	1.02	1.11	0.969	0.88	0.904	0.986	1.12	0.926	0.98	0.64	0.605	0.594	1.01	0.92	0.785
IA-LM	1.17	1.28	1.26	0.952	0.873	0.632	0.46	0.962	0.732	1.02	0.836	0.901	0.95	0.979	0.747	0.784	0.642
LC-2-ad	0.826	0.931	0.991	0.936	1.06	0.983	0.104	0.484	0.527	0.462	0.459	0.582	0.804	0.705	1.04	0.96	0.0819
LCLC-97TM1	1.01	0.961	1.01	0.884	1.14	0.711	0.938	0.554	–	0.303	0.284	0.74	0.669	0.456	0.636	0.527	0.228
LOU-NH91	0.957	0.969	0.94	1.02	0.732	0.798	0.638	0.731	0.75	0.753	0.728	0.777	1.09	0.782	0.449	0.526	0.468
LU99A	0.834	0.944	0.724	0.881	1.08	0.988	0.321	0.662	0.633	0.524	0.535	0.454	0.513	0.41	1.12	1.14	0.466
LXF-289	1.06	0.99	0.957	0.891	0.894	0.883	0.737	0.846	0.818	0.775	0.705	0.765	0.748	0.775	1.02	0.978	0.78
NCI-H23	1.23	1.18	0.887	0.907	1.23	1.03	0.319	0.431	0.508	0.506	0.362	0.56	0.36	0.453	0.946	0.943	0.173
NCI-H322M	1.02	1.06	0.924	0.979	0.608	0.615	0.523	0.982	0.969	0.994	0.862	0.87	0.969	0.735	1.19	1.16	1.06
NCI-H460	1.02	1.09	0.987	0.924	1.45	0.956	0.855	1.07	1.14	0.819	0.839	1.14	0.768	0.736	1.84	1.13	1.04
NCI-H520	0.804	0.627	0.783	0.762	0.86	0.717	0.18	0.791	0.956	0.763	0.621	0.657	0.654	0.634	0.524	0.711	0.173
NCI-H596	0.795	0.88	0.957	0.823	0.961	1.07	0.829	0.966	0.985	0.912	1.15	0.602	0.573	0.439	1.01	1.21	0.919
NCI-H647	1.25	1.16	1.13	1.37	1.22	1.12	0.173	1.28	1.47	1.05	0.957	0.61	0.782	0.385	0.976	1.16	0.395
NCI-H650	1.06	1.05	0.932	0.94	–	1.07	0.347	0.834	0.663	0.668	0.594	0.381	0.42	0.332	–	0.84	0.77
NCI-H661	1.08	0.987	1.03	0.771	0.471	0.496	0.44	0.983	1.22	0.917	0.843	0.785	0.833	0.716	0.81	0.894	0.9
NCI-H727	0.694	1.05	0.834	0.777	0.783	0.846	0.211	0.85	0.819	0.79	0.5	1.15	1.08	1.13	0.655	0.733	0.178
NCI-H838	1.15	1.14	0.997	1.03	0.875	1.02	0.205	0.946	0.904	0.779	0.8	0.713	0.693	0.575	0.588	0.808	0.208

Cell Line	relative viability (GW-2580 + Foretinib; first compound 0.08 µM)	relative viability (GW-2580 + Foretinib; first compound 0.8 µM)	relative viability (GW-2580 + Foretinib; first compound 2.53 µM)	relative viability (GW-2580 + Foretinib; first compound 8 µM)	relative viability (Fedratinib + Lapatinib; first compound 0.1 µM)	relative viability (Fedratinib + Lapatinib; first compound 0.3162 µM)	relative viability (Fedratinib + Lapatinib; first compound 1 µM)	relative viability (GW-2580 + Crizotinib; first compound 0.08 µM)	relative viability (GW-2580 + Crizotinib; first compound 0.8 µM)	relative viability (GW-2580 + Crizotinib; first compound 2.53 µM)	relative viability (GW-2580 + Crizotinib; first compound 8 µM)	relative viability (Fedratinib + Vorinostat; first compound 0.1 µM)	relative viability (Fedratinib + Vorinostat; first compound 0.3162 µM)	relative viability (Fedratinib + Vorinostat; first compound 1 µM)	relative viability (Fedratinib + Bortezomib; first compound 0.1 µM)	relative viability (Fedratinib + Bortezomib; first compound 0.3162 µM)	relative viability (Fedratinib + Bortezomib; first compound 1 µM)
NCI-H1355	1.04	1.06	0.841	0.923	0.734	1.04	0.962	1.24	1.12	0.946	1.01	0.688	0.622	0.596	1.21	1.24	1.09
NCI-H1437	1.38	1.28	1.14	0.91	0.821	0.827	0.19	1.01	1.01	0.828	0.77	0.816	0.892	0.922	0.432	0.473	0.191
NCI-H1650	1.29	1.43	1.19	1.05	0.548	0.925	0.183	1.06	1.29	1.36	0.919	0.433	0.581	0.605	0.199	0.221	0.193
NCI-H1651	0.958	0.804	0.754	0.745	0.817	0.813	0.118	0.917	0.952	0.813	0.874	0.498	0.567	0.552	0.965	0.951	0.871
NCI-H1666	0.928	0.936	0.948	0.991	0.503	0.671	0.258	1.01	0.984	1.17	0.926	1.07	1.1	0.928	0.649	0.944	0.276
NCI-H1734	0.894	0.855	0.783	0.717	1.18	1.1	0.183	0.66	0.74	0.656	0.509	1.07	0.796	0.685	1.06	0.856	0.231
NCI-H1755	1.02	0.967	0.907	0.679	1.02	1	0.942	0.852	1.03	0.818	0.71	0.761	0.786	0.705	0.938	0.92	0.903
NCI-H1915	1.26	0.768	1.12	1.06	0.891	0.985	0.662	0.896	1.14	1.03	0.905	0.539	0.507	0.459	0.986	0.872	0.662
NCI-H1975	0.965	1.03	0.939	0.803	1.02	0.922	0.163	1	1.12	0.926	0.796	0.744	0.702	0.603	0.388	0.405	0.163
NCI-H1993	0.921	0.765	0.686	0.746	0.725	0.82	0.608	0.971	0.828	–	0.936	0.819	0.872	0.864	0.993	0.979	0.48
NCI-H2009	1.31	1.25	1.21	1.17	0.915	1.02	0.171	1.05	1.05	1.07	1.01	0.639	0.696	0.695	0.99	1.11	0.131
NCI-H2023	0.735	1.02	0.841	0.779	0.897	0.75	0.083	0.61	0.829	0.59	0.623	0.826	0.626	0.547	1.08	0.95	0.0957
NCI-H2085	1	0.895	1.08	0.758	0.709	0.766	0.538	0.903	0.918	0.779	0.758	0.77	0.825	0.787	1.04	1.09	0.416
NCI-H2087	1.21	1.25	1.2	0.937	1.25	1.31	0.303	0.8	0.993	1	0.772	0.728	0.734	0.825	0.806	0.754	0.259
NCI-H2126	1.32	1.13	0.925	1.28	0.761	0.772	0.689	1.06	1.06	1.01	1.04	0.732	0.786	0.708	1.08	1.12	1.07
NCI-H2228	0.947	0.95	0.879	0.848	1.04	1.07	0.22	0.404	0.528	0.408	0.5	0.744	0.589	0.545	1.35	0.866	0.408
NCI-H2347	0.739	0.885	0.586	1.17	1.03	0.998	0.882	0.733	0.702	0.603	0.736	0.533	0.494	0.587	0.82	0.874	0.722
NCI-H2405	1.04	1.08	0.963	0.958	0.91	1.07	0.753	0.827	0.885	0.753	0.78	0.946	0.982	0.814	1.05	0.77	0.957
